Assay results: paper PMC6631369 (Anti-cancer drugs, 2018)

Tests used:
[1] = no reference given; cited from earlier work
[2] = cited from earlier work
UGT1A1 = tested on: UGT1A1; design: species or system patients; details: UGT1A1*28 and *60; population model ref 24

Row | Compound | dose excreted unchanged renally [1] [%] | half-life [2] | model-predicted clearance versus number of variant copies of UGT1A1 (UGT1A1)
1 | COc1cc([C@@H]2c3cc4c(cc3[C@@H](O[C@@H]3O[C@@H]5CO[C@@H](C)O[C@H]5[C@H](O)[C@H]3O)[C@H]3COC(=O)[C@H]23)OCO4)cc(OC)c1O [etoposide] | 56 | – | –
2 | O=C(/C=C/c1cccc(S(=O)(=O)Nc2ccccc2)c1)NO [belinostat] | – | ~ 1 h | decreasing trend with the number of variant copies of UGT1A1
